Test results: PubChem BioAssay AID2743 (NMMLSC, 2010)
Where “and” joins values, the source holds several entries; their conditions need not be identical. Equal entries are not always repeated. Calls of active or inactive are those of the source.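 Rule for the calls: active = fitted half-maximal concentration for change in GFP expression of 33 µM or less; inactive = the rest.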

Experiment: concentration-dependent AGP1-GFP change, TOR pathway – cell-based, flow cytometry, S. cerevisiae, MLPCN hits, dose response (AID 2743)
Settings: S. cerevisiae AGP1-GFP strain, flow cytometry GFP, 3 h; at 33 µM (top of the series)

SMILES	GFP fluorescence (kMESF)
O=C(c1ccc(Cl)cc1)N1CCN(c2cccc3[nH]ccc23)CC1	46.1 kMESF (inactive)
O=C(Nc1ccc(NC(=O)c2cc3ccccc3o2)cc1)c1ccco1	44.8 kMESF (inactive)
O=C1ON=C(c2ccccc2)/C1=C\c1ccco1	42.7 kMESF (inactive)
O=C(/C=C/c1ccccn1)c1cc(Br)ccc1O	37.3 kMESF (inactive)
Cc1cc(C)c(S(=O)(=O)N2CCC(C(=O)NCc3ccc(Cl)cc3Cl)CC2)c(C)c1	37.4 kMESF (inactive)
CN(Cc1cnc2nc(N)nc(N)c2n1)c1ccc(C(=O)N[C@@H](CCC(=O)O)C(=O)O)cc1	45.5 kMESF (inactive) and 51.9 kMESF (inactive)
N/C(Cc1ccc(Cl)cc1Cl)=N\OC(=O)c1cccs1	27.9 kMESF (inactive)
O=c1/c(=C/c2cccc3ccccc23)sc2ncnn12	36.7 kMESF (inactive)
Cc1ccc2nc(/C(C#N)=C/c3ccc(O)c(O)c3)[nH]c2c1	41.6 kMESF (inactive)
CCCOc1ccc(C(=O)NNC(=S)NC(=O)c2ccccc2)cc1	45.1 kMESF (inactive)
Oc1c(Br)cc(Br)cc1C=Nc1ccc2[nH]ncc2c1	37.5 kMESF (inactive)
CCOC(=O)c1c(C)oc2c1c(C(c1ccncc1)N1CCOCC1)c(O)c1ccccc12 (configuration not stated)	21.4 kMESF (inactive)
COc1cc(/C=C2/C(=O)ON=C2c2ccccc2)ccc1O	25 kMESF (inactive)
Cc1cccc(N=C2NC(=O)/C(=C/C=C/c3ccco3)S2)c1C	23.3 kMESF (inactive)
CNC(CC(=O)c1ccc([N+](=O)[O-])cc1)C(Cl)(Cl)Cl (configuration not stated)	25.2 kMESF (inactive)
Cc1ccsc1/C=N/Nc1ncc(Cl)cc1Cl	36 kMESF (inactive)
O=C(/C=C/c1ccc(Br)cc1)NC(=S)NNC(=O)c1ccco1	36.3 kMESF (inactive)
Cc1ccccc1[C@]1(C)ON(c2ccccc2C(F)(F)F)C1=O	34.6 kMESF (inactive)
O=[N+]([O-])c1ccc(S(=O)(=O)c2cccc(C(F)(F)F)c2)nc1	37.7 kMESF (inactive)
O=[N+]([O-])c1cc(F)c2cccnc2c1O	43.3 kMESF (inactive)
Cc1ccc(NC(=O)c2cc(N3C(=O)C=CC3=O)ccc2N2CCOCC2)cc1Cl	36.2 kMESF (inactive)
O=C(OCn1ncc(Br)c(Br)c1=O)c1ccc(F)cc1	43.7 kMESF (inactive)
COc1ccc(-c2cc3cc(C(=O)O)ccn3c2C(=O)c2ccccc2)cc1	43.2 kMESF (inactive)

SMILES	GFP fluorescence (kMESF)
Cc1ccccc1OCC(=O)NNC(=S)NC(=O)c1ccco1	43.5 kMESF (inactive)
O=S(=O)(/N=C(/Sc1ccccc1)c1ccccc1)c1ccccc1	41 kMESF (inactive)
COc1cc(/C=C2\C(=O)ON=C2c2ccccc2)cc(OC)c1OC	32.3 kMESF (inactive)
O=C(/C=C/c1ccc(F)cc1)NC(=S)NNC(=O)c1cnccn1	35.8 kMESF (inactive)
Cc1cccnc1Nc1nc(-c2ccccn2)cs1	31 kMESF (inactive)
O=[N+]([O-])c1ccc(N=Nc2c(Cl)cc(O)cc2Cl)cc1	41.8 kMESF (inactive)
CCCCC(=O)NNC(=S)NC(=O)c1ccc(C)cc1	58.2 kMESF (inactive)
Oc1c(CN2CCN(c3ccc(F)cc3)CC2)cc(Cl)c2cccnc12	41.8 kMESF (inactive)
O=C1NC(=O)N(CCc2ccc(F)cc2)C(=O)/C1=C/c1cccs1	39.1 kMESF (inactive)
Cc1ccccc1N=Nc1ccc(O)c2ncccc12	31.9 kMESF (inactive)
CN(C)NC(=S)Nc1ccc(S(=O)(=O)N2CCCCC2)cc1	40.4 kMESF (inactive)
N#Cc1nccnc1S(=O)(=O)c1cccs1	38.7 kMESF (inactive)
O=C1ON=C(c2ccccc2)/C1=C/c1ccc(-c2ccccc2[N+](=O)[O-])o1	29.1 kMESF (inactive)
Cc1ccc(C(=O)O/N=C(\N)Cc2cccs2)c(Cl)c1	22.9 kMESF (inactive)
CN(c1ccccc1)c1ccc(/C=c2\s/c(=C(/C#N)C(=O)C(C)(C)C)n(Cc3ccco3)c2=O)cc1	38 kMESF (inactive)
COc1cccc2c(=O)c(C(=O)NCc3cccs3)c[nH]c12	35.4 kMESF (inactive)
CC1(C(=O)NC(=S)NNC(=O)c2ccncc2)CCCCC1	34.2 kMESF (inactive)
O=C(Oc1ccnc2cc(Cl)ccc12)N1CCOCC1	35.7 kMESF (inactive)
CC(=O)n1cc(C(C[N+](=O)[O-])SCCN)c2ccccc21 (configuration not stated)	28.8 kMESF (inactive)
Cc1cccc(NC(c2ccc(C)s2)c2ccc3ccc(C)nc3c2O)n1 (configuration not stated)	32.5 kMESF (inactive)
O=c1c2cnn(-c3ccccc3)c2ncn1Cc1ccco1	29.6 kMESF (inactive)
CN(C)c1ccc(/C=C/c2cc[n+](C)cc2)cc1	30 kMESF (inactive)
O=C(C#Cc1ccccc1)c1cccc([N+](=O)[O-])c1	52 kMESF (inactive)

SMILES	GFP fluorescence (kMESF)
O=C1N(c2ccccc2C(F)(F)F)O[C@]1(c1ccccc1)C1CCCC1	32.8 kMESF (inactive)
COc1ccc(/C=C/C(=O)c2cc(Br)ccc(=O)c2O)cc1	-39.3 kMESF (inactive)
CN(C)/C=C/C(=O)c1ccc(-c2ccc(Cl)cc2Cl)o1	27.8 kMESF (inactive)
COC(=O)/C(=C/c1c[nH]c2ccccc12)[N+](=O)[O-]	39.1 kMESF (inactive)
COC(=O)CCCC1=CC2=CC(=O)C(C)(OC(=O)CCc3ccccc3)C(=O)C2=CO1 (configuration not stated)	29.2 kMESF (inactive)
Cc1cc(C2CCCCC2)n(O)c(=O)c1	37.5 kMESF (inactive)
O=C1C=CC(=O)N1c1cccc(-c2ccccc2)c1	44.7 kMESF (inactive)
COc1ccccc1[C@@]1(C)ON(c2ccccc2C(F)(F)F)C1=O	30.9 kMESF (inactive)
O=C(CSC1=NS(=O)(=O)c2ccccc21)Nc1ccccc1	27.1 kMESF (inactive)
COc1ccc(/C=C/C(=O)C2C(=O)C=C(C)OC2=O)cc1O (configuration not stated)	43 kMESF (inactive)
O=c1c2sc(-c3ccccc3)cc2nc2n1CCC2	25 kMESF (inactive)
O=C(Nc1nnc(-c2ccc(Cl)cc2)o1)c1ccccc1Br	28.4 kMESF (inactive)
O=C(Nc1nnc(-c2ccc(F)cc2)o1)c1cc(Cl)sc1Cl	40.6 kMESF (inactive)
O=C(NC(=S)NNC(=O)c1ccc(Cl)cc1Cl)c1cccnc1	26.1 kMESF (inactive)
Cc1ccc(-c2nc(C)sc2CC(=O)Nc2nnc(C)s2)cc1	34.5 kMESF (inactive)
O=C1N(c2ccccc2C(F)(F)F)OC1(Cc1ccccc1)c1ccccc1 (configuration not stated)	41.5 kMESF (inactive)
CCN1/C(=C/c2ccc3cc(C)ccc3[n+]2CC)Sc2ccc3sccc3c21	43.3 kMESF (inactive)
COc1cc(SSc2cc(OC)cc([N+](=O)[O-])c2N)c(N)c([N+](=O)[O-])c1	48.9 kMESF (inactive)
CC[C@]1(c2ccccc2OC)ON(c2ccccc2C(F)(F)F)C1=O	32.6 kMESF (inactive)
Cc1ccccc1C(=O)NNC(=S)NC(=O)c1ccc(Cl)cc1Cl	40.9 kMESF (inactive)
Cc1[nH]n(-c2ncc(-c3ccccc3)s2)c(=O)c1C(c1ccc(Cl)cc1)C(C#N)C#N (configuration not stated)	40.6 kMESF (inactive)
N=C1S/C(=C\c2ccco2)C(=O)N1c1nccs1	40.4 kMESF (inactive)
CC(=O)SC(C[N+](=O)[O-])c1cn(C(C)=O)c2ccccc12 (configuration not stated)	36.3 kMESF (inactive)

SMILES	GFP fluorescence (kMESF)
O=C(/C=C/Sc1ncn[nH]1)c1ccc(Cl)cc1	38 kMESF (inactive)
N/C(=N\OC(=O)c1cc(Br)ccc1Cl)c1ccccn1	31.3 kMESF (inactive)
O=c1oc(/C=C/c2ccc([N+](=O)[O-])s2)nc2ccccc12	37.9 kMESF (inactive)
COc1cccc2cc(-c3nc4ccccc4o3)c(=O)oc12	20.9 kMESF (inactive)
Clc1cnc(N/N=C/c2cccs2)c(Cl)c1	40.5 kMESF (inactive)
COc1ccc(NC2=C(Cl)C(=O)N(CCc3ccccc3)C2=O)c(OC)c1	35.3 kMESF (inactive)
CC1(C)OC(c2ccccc2)=C/C(=C/C=C2C(=O)NC(=S)NC2=O)O1	36.6 kMESF (inactive)
COc1cc(/C=C2\CC/C(=C\c3cc(OC)c(O)c(OC)c3)C2=O)cc(OC)c1O	34.6 kMESF (inactive)
Cc1ccc(NC(=O)c2cc(N3C(=O)C=CC3=O)ccc2Cl)cc1C	23.9 kMESF (inactive)
CCCS(=O)(=O)c1nnnn1-c1cccc(OC)c1	35.1 kMESF (inactive)
O=C1c2ccccc2C(=O)N1OS(=O)(=O)c1ccccc1	29.6 kMESF (inactive)
C/C(=N\NC(=O)c1cccc(Br)c1)c1ccccn1	42.1 kMESF (inactive)
O=C(Oc1c(Cl)cc(Cl)c2cccnc12)c1cccc([N+](=O)[O-])c1	34.3 kMESF (inactive)
Cc1cc(O)c(C(=O)/C=C/c2c(F)c(F)c(F)c(F)c2F)c(=O)o1	21.2 kMESF (inactive)
O=C(Sc1cccc2cccnc12)c1ccccc1Br	37.3 kMESF (inactive)
N#Cc1c2ccc([N+](=O)[O-])cc2[n+]([O-])n1-c1ccccc1	27.6 kMESF (inactive)
O=[N+]([O-])c1ccc(Sc2nc3ccccc3o2)c([N+](=O)[O-])c1	37.2 kMESF (inactive)
O=C1c2ccccc2C(=O)C2OC12 (configuration not stated)	33.7 kMESF (inactive)
Cc1ccc(/C=C2\C(=O)NC(=S)N(c3ccc(F)cc3)C2=O)s1	31.9 kMESF (inactive)
Cc1ccc2c(nc3s/c(=C\c4ccc(-c5ccccc5C(=O)O)o4)c(=O)n32)c1C	49.9 kMESF (inactive)
CCCCCCCCC/C(=N\O)c1ccccn1	34.8 kMESF (inactive)
Cc1cc(/C=C2/SC(=S)N(c3cccc(Cl)c3)C2=O)c(C)n1-c1cccnc1	46.4 kMESF (inactive)
Cc1[nH]c(-c2ccccn2)nc(=S)c1Cl	51 kMESF (inactive)
